In US8148391B2 (Cephalon, Inc., priority 2006, dated 2012):
Where two headings read alike, the source gives them in different places. Values belong to the compound of their own block, whether it stands above or below them.

How the values were obtained:
[1] = target: T1, baculovirus-expressed ALK (Homo sapiens, UniProt Q9UM73); assay: ALK Kinase Assay (ELISA-type, time-resolved fluorescence); format: biochemical
T1 construct: host or cells: baculovirus expression system
How it was run: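 Plates coated with phospholipase C-γ substrate (10 μg/mL in TBS); reaction started with 30 ng/ml ALK and run 15 min at 37° C. Phosphorylated substrate detected with Eu-N1-labeled PT66 antibody. IC50 from sigmoidal variable-slope fit of percent inhibition vs log concentration.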

[2] = target: T2, c-Met (cytoplasmic domain) (Homo sapiens, UniProt P08581); assay: c-Met Kinase Assay (same methods as for ALK, with modifications); format: biochemical
T2 construct: 10 ng/mL c-Met (cytoplasmic domain, Invitrogen Corporation #PV3143); purchased Invitrogen Corporation PV3143
How it was run: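 Europium-labeled PT66 antibody (Eu-N1) detects substrate phosphorylation on wells coated with phospholipase C-γ at 10 μg/mL. The kinase, the cytoplasmic domain of c-Met at 10 ng/mL, starts the reaction, which proceeds 15 minutes at 37° C.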

[3] = ALK kinase inhibition, 1 μM ATP (Km level), read-out: ALK Activity
[4] = c-Met kinase inhibition, 1 μM ATP (Km level), read-out: cMet Activity
[5] = 1 μM ATP (Km level), read-out: ALK Activity (ALK Kinase Inhibition, IC50)
[6] = 1 μM ATP (Km level), read-out: cMet Activity (c-Met Kinase Inhibition, IC50)
[7] = 1 μM ATP (Km level), 30 ng/ml ALK, 37° C., 15 minutes, read-out: ALK Activity (ALK kinase inhibition, IC50 class)
[8] = 1 μM ATP (Km level), 10 ng/mL c-Met, read-out: cMet Activity (c-Met kinase inhibition, IC50 class)
[9] = ALK kinase inhibition, 1 μM ATP, read-out: ALK Activity
[10] = c-Met kinase inhibition, 1 μM ATP, read-out: cMet Activity

T1 sequence (Q9UM73 19-1620): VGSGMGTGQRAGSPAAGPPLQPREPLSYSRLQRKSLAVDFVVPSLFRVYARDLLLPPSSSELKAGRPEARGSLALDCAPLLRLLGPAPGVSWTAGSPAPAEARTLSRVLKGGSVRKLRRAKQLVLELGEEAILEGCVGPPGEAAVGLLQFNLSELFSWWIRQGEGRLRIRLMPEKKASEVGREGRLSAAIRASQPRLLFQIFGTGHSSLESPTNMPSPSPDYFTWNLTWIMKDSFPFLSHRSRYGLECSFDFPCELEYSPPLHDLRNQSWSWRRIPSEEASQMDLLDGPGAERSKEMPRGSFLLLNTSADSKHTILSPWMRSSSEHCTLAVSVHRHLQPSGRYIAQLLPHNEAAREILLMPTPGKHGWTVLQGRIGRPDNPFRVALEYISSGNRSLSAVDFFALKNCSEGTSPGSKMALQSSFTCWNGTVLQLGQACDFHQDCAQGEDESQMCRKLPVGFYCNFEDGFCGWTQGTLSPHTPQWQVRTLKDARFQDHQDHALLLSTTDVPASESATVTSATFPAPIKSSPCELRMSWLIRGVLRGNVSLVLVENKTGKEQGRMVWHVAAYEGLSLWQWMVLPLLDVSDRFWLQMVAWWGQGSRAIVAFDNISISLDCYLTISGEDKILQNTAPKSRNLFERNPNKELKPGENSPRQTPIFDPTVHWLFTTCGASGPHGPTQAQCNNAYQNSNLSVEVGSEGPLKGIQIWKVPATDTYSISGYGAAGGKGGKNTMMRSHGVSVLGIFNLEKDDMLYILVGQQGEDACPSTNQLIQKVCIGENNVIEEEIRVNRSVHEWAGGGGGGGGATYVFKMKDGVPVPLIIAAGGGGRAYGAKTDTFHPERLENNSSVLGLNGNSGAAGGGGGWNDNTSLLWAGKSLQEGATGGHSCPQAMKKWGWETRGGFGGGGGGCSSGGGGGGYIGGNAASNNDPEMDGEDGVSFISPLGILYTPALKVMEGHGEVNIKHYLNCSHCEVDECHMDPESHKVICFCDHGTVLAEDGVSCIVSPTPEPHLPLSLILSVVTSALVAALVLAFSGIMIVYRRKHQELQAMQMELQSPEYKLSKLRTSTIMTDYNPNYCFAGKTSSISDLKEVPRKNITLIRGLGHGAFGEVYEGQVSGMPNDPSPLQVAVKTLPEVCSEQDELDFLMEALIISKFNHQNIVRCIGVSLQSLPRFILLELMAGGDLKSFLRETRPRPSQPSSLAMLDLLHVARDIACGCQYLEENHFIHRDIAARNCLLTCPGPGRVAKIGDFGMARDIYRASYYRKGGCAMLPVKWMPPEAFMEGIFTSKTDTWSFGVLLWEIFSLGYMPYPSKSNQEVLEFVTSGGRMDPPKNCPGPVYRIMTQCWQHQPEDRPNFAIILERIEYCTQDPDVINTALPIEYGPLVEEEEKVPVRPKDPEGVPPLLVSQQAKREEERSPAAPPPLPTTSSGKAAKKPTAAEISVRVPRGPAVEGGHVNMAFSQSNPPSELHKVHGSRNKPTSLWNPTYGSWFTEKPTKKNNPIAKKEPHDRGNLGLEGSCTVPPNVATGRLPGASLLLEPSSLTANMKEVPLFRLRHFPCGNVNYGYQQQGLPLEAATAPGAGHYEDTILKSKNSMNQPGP
T2 sequence (P08581 956-1390 limits assumed): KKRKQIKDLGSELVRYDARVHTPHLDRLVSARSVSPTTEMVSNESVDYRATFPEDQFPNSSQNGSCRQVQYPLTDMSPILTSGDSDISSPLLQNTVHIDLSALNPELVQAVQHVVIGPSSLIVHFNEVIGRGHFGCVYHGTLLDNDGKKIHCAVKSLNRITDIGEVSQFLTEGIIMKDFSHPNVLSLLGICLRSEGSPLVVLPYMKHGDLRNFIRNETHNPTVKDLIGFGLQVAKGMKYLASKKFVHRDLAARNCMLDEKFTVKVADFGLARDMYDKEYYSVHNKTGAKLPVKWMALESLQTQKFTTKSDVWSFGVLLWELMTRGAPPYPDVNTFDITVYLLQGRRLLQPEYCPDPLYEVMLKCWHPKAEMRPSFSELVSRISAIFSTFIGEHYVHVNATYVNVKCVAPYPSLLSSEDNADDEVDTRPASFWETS

IC50 [1, 7]: < 0.1 µM | IC50 [2, 8]: 1 to 10 µM
Structure (SMILES): COCCNC(=O)c1ccccc1Nc1nc(Nc2ccc3c(c2)CCN(CCOC)CC3)ncc1Cl [Example 1398, {5-Chloro-2-[3-(2-methoxy-ethyl)-2,3,4,5-tetrahydro-1H-benzo[d]azepin-7-ylamino]-pyrimidin-4-ylamino}-N-(2-methoxy-ethyl)-benzamide]

IC50 [1, 9]: < 0.1 µM | IC50 [2, 10]: > 10 µM
Structure (SMILES): CCN1CC(=O)Nc2cc(Nc3ncc(Cl)c(N[C@@H]4CCCC[C@H]4NS(C)(=O)=O)n3)c(OC)cc2C1 [Example 1658, N-{(1R,2R)-2-[5-Chloro-2-(4-ethyl-7-methoxy-2-oxo-2,3,4,5-tetrahydro-1H-benzo[e][1,4]diazepin-8-ylamino)-pyrimidin-4-ylamino]-cyclohexyl}-methane-sulfonamide]

IC50 [1, 9]: 0.1 to 1 µM | IC50 [2, 10]: 0.1 to 1 µM
Structure (SMILES): CNC(=O)c1ccc(C(F)(F)F)cc1Nc1nc(Nc2ccc3c(c2)CCOC(=O)N3C)ncc1Cl [Example 1754, 2-[5-Chloro-2-(5-methyl-6-oxo-5,6,8,9-tetrahydro-7-oxa-5-aza-benzocyclohepten-2-ylamino)-pyrimidin-4-ylamino]-N-methyl-4-trifluoromethyl-benzamide]

IC50 [1, 9]: 1 to 10 µM | IC50 [2, 10]: 1 to 10 µM
Structure (SMILES): CCN1C(=O)CCC(C)(C)c2ccc(Nc3ncc(Cl)c(Nc4ccsc4C(=O)NC)n3)cc21 [Example 1597, 3-[5-Chloro-2-(1-ethyl-5,5-dimethyl-2-oxo-2,3,4,5-tetrahydro-1H-benzo[b]azepin-8-ylamino)-pyrimidin-4-ylamino]-thiophene-2-carboxylic acid methylamide]

IC50 [1, 9]: 1 to 10 µM | IC50 [2, 10]: < 0.1 µM
Structure (SMILES): CN1C(=O)OCCc2cc(Nc3ncc(Cl)c(Nc4c(F)cccc4OCC(O)CO)n3)ccc21 (stereo not drawn) [Example 1717, 2-{5-Chloro-4-[2-(2,3-dihydroxy-propoxy)-6-fluoro-phenylamino]-pyrimidin-2-ylamino}-5-methyl-8,9-dihydro-5H-7-oxa-5-aza-benzocyclohepten-6-one]

IC50 [1, 9]: < 0.1 µM | IC50 [2, 10]: > 10 µM
Structure (SMILES): COc1cc2c(cc1Nc1ncc(Cl)c(N[C@H]3[C@@H](C(N)=O)[C@@H]4C=C[C@H]3C4)n1)CCN(CCO)CC2 [Example 1532, (1S,2S,3R,4R)-3-{5-Chloro-2-[3-(2-hydroxy-ethyl)-8-methoxy-2,3,4,5-tetrahydro-1H-3-benzazepin-7-ylamino]-pyrimidin-4-ylamino}-bicyclo[2.2.1]hept-5-ene-2-carboxylic acid amide]

More lines, now with the values behind:

Structure (SMILES): COCCN1CCc2ccc(Nc3ncc(Cl)c(Nc4ccccc4-c4ncc[nH]4)n3)cc2CC1 [Example 221, 5-Chloro-N*4*-[2-(1H-imidazol-2-yl)-phenyl]-N*2*-[3-(2-methoxy-ethyl)-2,3,4,5-tetrahydro-1H-benzo[d]azepin-7-yl]-pyrimidine-2,4-diamine]
IC50 [1, 3]: < 0.1 µM | IC50 [2, 4]: 0.1 to 1 µM

Structure (SMILES): Cc1cccc(-c2ccccc2Nc2nc(Nc3ccc4c(c3)C(C)(C)CCC(=O)N4)ncc2Cl)n1 [Example 1008, 7-{5-Chloro-4-[2-(6-methyl-pyridin-2-yl)-phenylamino]-pyrimidin-2-ylamino}-5,5-dimethyl-1,3,4,5-tetrahydro-benzo[b]azepin-2-one]
IC50 [1, 5]: < 0.1 µM | IC50 [2, 6]: 1 to 10 µM

Structure (SMILES): CC1(C)CCC(=O)Nc2ccc(Nc3ncc(Cl)c(Nc4ccc(N5CCC(C(=O)O)CC5)cc4-n4cccn4)n3)cc21 [Example 629, 1-{4-[5-Chloro-2-(5,5-dimethyl-2-oxo-2,3,4,5-tetrahydro-1H-benzo[b]azepin-7-ylamino)-pyrimidin-4-ylamino]-3-pyrazol-1-yl-phenyl}-piperidine-4-carboxylic acid]
IC50 [1, 5]: < 0.1 µM | IC50 [2, 6]: 1 to 10 µM

Structure (SMILES): COc1cc2c(cc1Nc1ncc(Cl)c(N[C@@H]3CCCC[C@H]3NS(C)(=O)=O)n1)CCN(CC(=O)N(C)C)CC2 [Example 258, 2-{7-[5-Chloro-4-((1R,2R)-2-methanesulfonylamino-cyclohexylamino)-pyrimidin-2-ylamino]-8-methoxy-1,2,4,5-tetrahydro-benzo[d]azepin-3-yl}-N,N-dimethyl-acetamide]
IC50 [1, 3]: < 0.1 µM | IC50 [2, 4]: > 10 µM

Structure (SMILES): COCCOc1ccc(Nc2nc(Nc3cc4c(cc3OC)CCN(CC(=O)N(C)C)CC4)ncc2Cl)c(S(=O)(=O)C(C)C)c1 [Example 1189, 2-(7-{5-Chloro-4-[4-(2-methoxy-ethoxy)-2-(propane-2-sulfonyl)-phenylamino]-pyrimidin-2-ylamino}-8-methoxy-1,2,4,5-tetrahydro-benzo[d]azepin-3-yl)-N,N-dimethyl-acetamide]
IC50 [1, 7]: < 0.1 µM | IC50 [2, 8]: > 10 µM

Structure (SMILES): C#CCN1CCN(C)c2cc(Nc3ncc(Cl)c(N[C@@H]4CCCC[C@H]4NS(C)(=O)=O)n3)ccc2C1 [Example 480, N-{(1R,2R)-2-[5-Chloro-2-(1-methyl-4-prop-2-ynyl-2,3,4,5-tetrahydro-1H-benzo[e][1,4]diazepin-8-ylamino)-pyrimidin-4-ylamino]-cyclohexyl}-methanesulfonamide]
IC50 [1, 3]: < 0.1 µM | IC50 [2, 4]: 1 to 10 µM

Structure (SMILES): CN1CCN(C2CCN(C3CCc4ccc(Nc5ncc(Cl)c(N[C@H]6[C@@H](C(N)=O)[C@@H]7C=C[C@H]6C7)n5)cc4CC3)CC2)CC1 (stereo partly drawn) [Example 887, (1S,2S,3R,4R)-3-(5-Chloro-2-{7-[4-(4-methyl-piperazin-1-yl)-piperidin-1-yl]-6,7,8,9-tetrahydro-5H-benzocyclohepten-2-ylamino}-pyrimidin-4-ylamino)-bicyclo[2.2.1]hept-5-ene-2-carboxylic acid amide]
IC50 [1, 5]: < 0.1 µM | IC50 [2, 6]: 0.1 to 1 µM

Structure (SMILES): CCN1CCc2ccc(Nc3ncc(Cl)c(N[C@@H]4CCCC[C@H]4NS(C)(=O)=O)n3)cc2CC1 [Example 441, N-{(1R,2R)-2-[5-Chloro-2-(3-ethyl-2,3,4,5-tetrahydro-1H-benzo[d]azepin-7-ylamino)-pyrimidin-4-ylamino]-cyclohexyl}methanesulfonamide]
IC50 [1, 3]: < 0.1 µM | IC50 [2, 4]: 0.1 to 1 µM

Structure (SMILES): C#CCN1CCc2ccc(Nc3ncc(Cl)c(N[C@@H]4CCCC[C@H]4NS(C)(=O)=O)n3)cc2CC1 [Example 325, N-{(1R,2R)-2-[5-Chloro-2-(3-prop-2-ynyl-2,3,4,5-tetrahydro-1H-benzo[d]azepin-7-ylamino)-pyrimidin-4-ylamino]-cyclohexyl}-methanesulfonamide]
IC50 [1, 3]: < 0.1 µM | IC50 [2, 4]: 0.1 to 1 µM

Structure (SMILES): CNS(=O)(=O)c1ccccc1Nc1nc(Nc2ccc3c(c2)C2CCC3CN(C(=O)C(F)(F)F)C2)ncc1Cl (stereo not drawn) [Example 284, 2-{5-Chloro-2-[10-(2,2,2-trifluoro-acetyl)-10-aza-tricyclo[6.3.2.0*2,7*]trideca-2,4,6-trien-4-ylamino]-pyrimidin-4-ylamino}-N-methyl-benzenesulfonamide]
IC50 [1, 3]: < 0.1 µM | IC50 [2, 4]: 0.1 to 1 µM

Structure (SMILES): COc1cc2c(cc1Nc1ncc(Cl)c(N[C@H]3[C@@H](C(N)=O)[C@@H]4C=C[C@H]3C4)n1)CCN(Cc1ncco1)CC2 [Example 1179, (1S,2S,3R,4R)-3-[5-Chloro-2-(8-methoxy-3-oxazol-2-ylmethyl-2,3,4,5-tetrahydro-1H-benzo[d]azepin-7-ylamino)-pyrimidin-4-ylamino]-bicyclo[2.2.1]hept-5-ene-2-carboxylic acid amide]
IC50 [1, 7]: < 0.1 µM | IC50 [2, 8]: > 10 µM

Structure (SMILES): COc1ccc2c(c1Nc1ncc(Cl)c(N[C@@H]3CCCC[C@H]3NS(C)(=O)=O)n1)CCC(NCC(F)F)CC2 (single isomer, unassigned) [Example 1075]
IC50 [1, 7]: 1 to 10 µM | IC50 [2, 8]: > 10 µM
